Values quoted from earlier work in the PKSmart pharmacokinetics tables (Seal et al. 2025).

Assay: Lombardo, Berellini, Obach 2018, Drug Metab Dispos 46:1466, doi 10.1124/dmd.118.082966
Details: human; for MRT / Vd / clearance / half-life: in vivo, iv; for fraction unbound: plasma

SMILES	MRT	Vd	clearance	half-life	fraction unbound
N#Cc1ccc(Cn2cncc2CN2CCN(c3cccc(Cl)c3)C(=O)C2)cc1	4.2 h	0.8 L/kg	0.192 L/h/kg	2.6 h	
Cc1cc(NC(=O)C2C(=O)c3ccccc3S(=O)(=O)N2C)no1 (configuration not stated)	44 h	0.19 L/kg	0.0042 L/h/kg	33 h	
COc1ccc(C[C@@H]2c3cc(OC)c(OC)cc3CC[N@+]2(C)CCC(=O)OCCCCCOC(=O)CC[N@@+]2(C)CCc3cc(OC)c(OC)cc3[C@H]2Cc2ccc(OC)c(OC)c2)cc1OC	0.43 h	0.14 L/kg	0.324 L/h/kg	0.42 h	0.62
C=CCC1=CC(C)C[C@H](C)C[C@H](OC)[C@H]2O[C@@](O)(C(=O)C(=O)N3CCCCC3C(=O)O[C@H](/C(C)=C/[C@@H]3CC[C@@H](O)[C@H](OC)C3)[C@H](C)[C@@H](O)CC1=O)[C@H](C)C[C@@H]2OC (some centres not stated)	27 h	1.2 L/kg	0.042 L/h/kg	26 h	
CN(C)Cc1c(C(=O)NCCOc2ccc(C(O)=NO)cc2)oc2ccccc12	2.65 h	2.6 L/kg	0.98 L/h/kg	5.9 h	
COc1c(-c2ccc3cc(NS(C)(=O)=O)ccc3c2)cc(-n2ccc(=O)[nH]c2=O)cc1C(C)(C)C		2.13 L/kg		5.7 h	0.005
COc1ccc(C(=O)Nc2ccccc2CCC2CCCCN2C)cc1 (configuration not stated)	2.8 h	2.2 L/kg	0.78 L/h/kg	2.6 h	
C=CCN1CCC[C@H]1CNC(=O)c1cc(S(=O)(=O)NC)c(N)cc1OC	7 h	2.3 L/kg	0.328 L/h/kg	4.8 h	
C[C@H]1O[C@H](O[C@H]2[C@H](O)[C@@H](O)[C@@H](OC(C(=O)C(O)CO)[C@H](O)CO)O[C@@H]2CO)[C@H](O)[C@@H](O)[C@@H]1N[C@H]1C=C(CO)[C@@H](O)[C@H](O)[C@H]1O (some centres not stated)	2.4 h	0.32 L/kg	0.132 L/h/kg	2.7 h	
CCCNC(C)C(=O)Nc1ccccc1C (configuration not stated)	2.2 h	3.7 L/kg	1.74 L/h/kg	1.8 h	0.72
COP(=O)(c1cc(C)cc(/C=C/C#N)c1)c1c(C(N)=O)[nH]c2ccc(Cl)cc12 (configuration not stated)	5.5 h	0.56 L/kg	0.103 L/h/kg	4.4 h	
CC(=O)N(CC[C@@](CCN1CCCCC1)(C(N)=O)c1ccccc1Cl)C(C)C	7.9 h	2.6 L/kg	0.326 L/h/kg	12 h	
CC[C@@]1(O)C(=O)OCc2c1cc1n(c2=O)Cc2c-1nc1cc3c(cc1c2CN1CCN(C)CC1)OCCO3	3.5 h	4.77 L/kg	1.5 L/h/kg	3.54 h	
CC1(C)[C@H]2CC[C@@]3(C)C(C(=O)C=C4C5C[C@](C)(C(=O)O)CC[C@@]5(C)CC[C@@]43C)[C@]2(C)CC[C@H]1O[C@H]1OC(C(=O)O)[C@@H](O)[C@H](O)[C@H]1O[C@@H]1OC(C(=O)O)[C@@H](O)[C@H](O)[C@H]1O (some centres not stated)	30.9 h	0.09 L/kg	0.003 L/h/kg	23.1 h	
C[C@@]12CCCCC[C@@H](Cc3ccc(O)cc31)[C@@H]2N	4.6 h	5.6 L/kg	1.65 L/h/kg	3.9 h	0.08
Cc1cc(-n2cccc2)c(S(C)(=O)=O)cc1C(=O)NC(=N)N	2.3 h	1.1 L/kg	0.492 L/h/kg	2.2 h	
CC(C)(C)c1nc(-c2cccc(NS(=O)(=O)c3c(F)cccc3F)c2F)c(-c2ccnc(N)n2)s1	3.8 h	0.65 L/kg	0.172 L/h/kg	2.6 h	0.003
OC[C@@H](O)[C@@H](O)[C@H](O)[C@H](O)CO	3.5 h	0.24 L/kg	0.072 L/h/kg	4.7 h	
CC1(C)S[C@@H]2C(NC(=O)C(C(=O)O)c3ccccc3)C(=O)N2C1C(=O)O (some centres not stated)	1.5 h	0.17 L/kg	0.114 L/h/kg	1.1 h	
CC(=O)O[C@H]1C[C@@H]2CC[C@@H]3[C@H](CC[C@@]4(C)[C@H]3C[C@H]([N+]3(C)CCCCC3)[C@@H]4OC(C)=O)[C@@]2(C)C[C@@H]1N1CCCCC1	1.1 h	0.3 L/kg	0.27 L/h/kg	1.4 h	0.25
C/C(=C\[C@H](C(C)C)N(C)C(=O)C(NC(=O)C1CCCCN1C(C)C)C(C)(C)C)C(=O)O (some centres not stated)	21.5 h	1.26 L/kg	0.0582 L/h/kg	17.5 h	
CN(C(=O)CO)c1c(I)c(C(=O)NC[C@H](O)CO)c(I)c(C(=O)NC[C@H](O)CO)c1I	2.7 h	0.23 L/kg	0.084 L/h/kg	2.3 h	1
COc1ccc(CCN(C)CCCN2CCc3cc(OC)c(OC)cc3CC2=O)cc1OC	3.2 h	1.6 L/kg	0.504 L/h/kg	2.8 h	
CCOP(=O)(OCC)C(C)NC(=O)N(CCCl)N=O (configuration not stated)	0.55 h	0.62 L/kg	1.11 L/h/kg	0.38 h	
N=C(N)N/N=C1\CCc2c(C(=N)N)cccc21	104 h	20 L/kg	0.192 L/h/kg	65.4 h	

SMILES	MRT	Vd	clearance	half-life	fraction unbound
CC[C@]1(O)C[C@@H]2CN(CCc3c([nH]c4ccccc34)[C@@](C(=O)OC)(c3cc4c(cc3OC)N(C=O)[C@H]3[C@@](O)(C(=O)OC)[C@H](OC(C)=O)[C@]5(CC)C=CCN6CC[C@]43[C@@H]65)C2)C1	20 h	2.4 L/kg	0.12 L/h/kg	23 h	
CC(=O)N(O)CCCCCNC(=O)CCC(=O)N(O)CCCCCNC(=O)CCC(=O)N(O)CCCCCN	2.7 h	1.35 L/kg	0.5 L/h/kg	3.05 h	
Nc1nc(=O)c2ncn(CCC(CO)CO)c2[nH]1	2.4 h	1.1 L/kg	0.504 L/h/kg	2.1 h	
CCc1cnn2c(NCc3ccc[n+]([O-])c3)cc(N3CCCC[C@H]3CCO)nc12	1.1 h	0.32 L/kg	0.279 L/h/kg	2.1 h	
O=c1[nH]cnc2[nH]ncc12	0.88 h	0.58 L/kg			
CN(c1nccc(=O)[nH]1)C1CCN(c2nc3ccccc3n2Cc2ccc(F)cc2)CC1	6 h	0.38 L/kg	0.0618 L/h/kg	9.6 h	
CC1C(=O)O[C@H]2C[C@@]34[C@H]5C[C@@H](C(C)(C)C)C36C(O)C(=O)O[C@H]6OC4(C(=O)O5)[C@@]12O (some centres not stated)	4.6 h	0.62 L/kg	0.138 L/h/kg	3.8 h	
CN(C)[C@@H]1C(O)=C(C(N)=O)C(=O)[C@@]2(O)C(O)=C3C(=O)c4c(O)c(NC(=O)CN5CCCC5)cc(F)c4C[C@H]3C[C@@H]12	10.3 h	2.3 L/kg	0.223 L/h/kg		0.18
O=C(O)C[C@@H]1CC[C@H](NC(=O)Cc2cccs2)B(O)O1	1.64 h	0.29 L/kg	0.176 L/h/kg	1.34 h	0.67
CC(NC(CCc1ccccc1)C(=O)O)C(=O)N1Cc2ccccc2CC1C(=O)O (configuration not stated)	2.3 h	0.13 L/kg	0.0558 L/h/kg	2.3 h	
CC(C)(C)c1cnc(CSc2cnc(NC(=O)C3CCNCC3)s2)o1	7.13 h	5.14 L/kg	0.78 L/h/kg	9.3 h	
NCCCNc1ccc2c(CNCCO)nn3c4c(O)ccc(O)c4c(=O)c1c23	11 h	12 L/kg	1.08 L/h/kg	32 h	
CCC(=O)O[C@H](CC(=O)[O-])C[N+](C)(C)C	2.15 h	0.3 L/kg	0.14 L/h/kg	1.28 h	
C=CCN1CCCC1CNC(=O)c1cc2[nH]nnc2cc1OC (configuration not stated)	4 h	1.6 L/kg	0.396 L/h/kg	2.8 h	
COc1ccc(CC(C)(C)NC[C@H](O)c2cc(O)cc3c2OCC(=O)N3)cc1	22.2 h	15.8 L/kg	0.747 L/h/kg	22.1 h	0.4
C[C@H]1CN(CC(Cc2ccccc2)C(=O)NCC(=O)O)CC[C@@]1(C)c1cccc(O)c1 (some centres not stated)	1.24 h	0.43 L/kg	0.35 L/h/kg	5.3 h	0.2
N#C[C@@H](O[C@@H]1O[C@H](CO[C@@H]2O[C@H](CO)[C@@H](O)[C@H](O)[C@H]2O)[C@@H](O)[C@H](O)[C@H]1O)c1ccccc1	1.83 h	0.21 L/kg	0.113 L/h/kg	1.23 h	
NC1CCN(c2c(F)cc3c(=O)c(C(=O)O)cn(C4CC4)c3c2Cl)C1 (configuration not stated)	6.7 h	1.9 L/kg	0.282 L/h/kg	5.4 h	
O=C(O)c1cccc(Cc2cc(Cl)ccc2OCc2ccc(Cl)cc2F)n1	6.4 h	0.77 L/kg	0.12 L/h/kg	8.15 h	
CCc1ccc(Cc2ccc3c(c2)[C@]2(OC3)O[C@H](CO)[C@@H](O)[C@H](O)[C@H]2O)cc1	5.1 h	0.63 L/kg	0.124 L/h/kg	4.7 h	0.46
CCCC(C)(COC(N)=O)COC(N)=O	19 h	0.7 L/kg	0.036 L/h/kg	14 h	1
Cc1nc(=O)c(C#N)c(NCc2cccnc2)[nH]1	1.1 h	0.39 L/kg	0.348 L/h/kg	0.95 h	0.05
Nc1ccn([C@@H]2C=C(CO)[C@@H](O)[C@H]2O)c(=O)n1			0.217 L/h/kg		
N=C(N)Nc1ccc(C(=O)Oc2ccc3cc(C(=N)N)ccc3c2)cc1	1.15 h	5.71 L/kg	4.92 L/h/kg	1.84 h	
COc1ccc(OC)c([C@H](O)CNC(=O)CN)c1	0.4 h	0.67 L/kg	1.67 L/h/kg	0.6 h	0.7
